Experimental data taken from ChEMBL document CHEMBL4420076, “Amylin and calcitonin receptor agonist” (2017).
Numbered stars: 1 amine (or outer) side, 2 acyl side, 3 side chain; on linkers, the order of the positions; unused ones are H or OH. Peptide text beside a SMILES is read from it. * marks the point of attachment. C20 diacid = O=C(O)CCCCCCCCCCCCCCCCCCC(=O)*; C18 diacid = O=C(O)CCCCCCCCCCCCCCCCC(=O)*; γGlu = O=C(O)[C@H](CCC(=O)[*:2])N[*:1]

Tests used:
[1] = Solubility in 100 mM bistrispropane buffer at pH 7.5 incubated for 18 hrs by UPLC analysis; type: physicochemical
[2] = target: T1, Amylin receptor AMY3; CALCR/RAMP3 (Homo sapiens, UniProt O60896+P30988); assay: Displacement of [125I]-labeled rat amylin from human amylin receptor expressed in BHK tkts13 whole cells co-expressing RAMP3 incubated for 60 mins by scintillation proximity assay; type: cell-based
T1 sequence (P30988 whole entry): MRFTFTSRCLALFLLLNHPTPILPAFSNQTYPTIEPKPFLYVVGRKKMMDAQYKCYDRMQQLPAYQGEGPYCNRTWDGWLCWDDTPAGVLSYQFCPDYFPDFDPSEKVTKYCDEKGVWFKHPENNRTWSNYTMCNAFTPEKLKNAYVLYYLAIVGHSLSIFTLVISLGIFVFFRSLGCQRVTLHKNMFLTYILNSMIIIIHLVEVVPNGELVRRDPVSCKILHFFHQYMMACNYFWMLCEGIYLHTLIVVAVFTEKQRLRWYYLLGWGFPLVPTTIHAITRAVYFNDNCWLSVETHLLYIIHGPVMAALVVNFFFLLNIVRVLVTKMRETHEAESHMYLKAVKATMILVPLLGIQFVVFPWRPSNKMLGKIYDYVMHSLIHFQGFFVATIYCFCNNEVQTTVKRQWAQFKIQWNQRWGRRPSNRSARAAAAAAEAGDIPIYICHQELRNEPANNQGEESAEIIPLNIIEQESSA
T1 sequence (O60896 whole entry): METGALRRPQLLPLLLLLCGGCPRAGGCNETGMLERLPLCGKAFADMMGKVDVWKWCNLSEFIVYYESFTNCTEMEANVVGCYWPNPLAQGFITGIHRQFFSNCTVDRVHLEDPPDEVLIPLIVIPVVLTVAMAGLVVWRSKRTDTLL

[3] = Solubility in 100 mM bistrispropane buffer at pH 6.5 incubated for 18 hrs by UPLC analysis; type: physicochemical
[4] = Solubility in 100 mM bistrispropane buffer at pH 8.0 incubated for 18 hrs by UPLC analysis; type: physicochemical
[5] = Solubility in 100 mM bistrispropane buffer at pH 7.0 incubated for 18 hrs by UPLC analysis; type: physicochemical
[6] = target: T1, Amylin receptor AMY3; CALCR/RAMP3; assay: Agonist activity at human amylin receptor expressed in BHK570 cells co-expressing RAMP3 assessed as increase in intracellular cAMP concentration incubated for 3 hrs in presence of 10% FBS by CRE luciferase reporter gene assay; type: functional, cell-based
[7] = Solubility in 100 mM glycylglycine buffer at pH 3.0 incubated for 18 hrs by UPLC analysis; type: physicochemical
[8] = target: T2, Calcitonin receptor (Homo sapiens, UniProt P30988); assay: Agonist activity at human calcitonin receptor expressed in BHK570 cells assessed as increase in intracellular cAMP concentration incubated for 3 hrs in absence of albumin by CRE luciferase reporter gene assay; type: functional, cell-based
T2 sequence (P30988 whole entry): T1 sequence (P30988 whole entry)

[9] = target: T1, Amylin receptor AMY3; CALCR/RAMP3; assay: Agonist activity at human amylin receptor expressed in BHK570 cells co-expressing RAMP3 assessed as increase in intracellular cAMP concentration incubated for 3 hrs in absence of albumin by CRE luciferase reporter gene assay; type: functional, cell-based
[10] = Solubility in 100 mM glycylglycine buffer at pH 4.0 incubated for 18 hrs by UPLC analysis; type: physicochemical
[11] = Solubility in 100 mM bistrispropane buffer at pH 6.0 incubated for 18 hrs by UPLC analysis; type: physicochemical
[12] = target: T2, Calcitonin receptor; assay: Agonist activity at human calcitonin receptor expressed in BHK570 cells assessed as increase in intracellular cAMP concentration incubated for 3 hrs in presence of 10% FBS by CRE luciferase reporter gene assay; type: functional, cell-based
[13] = Solubility in 100 mM glycylglycine buffer at pH 5.0 incubated for 18 hrs by UPLC analysis; type: physicochemical

Compound | solubility at 18 h [1] | IC50 [2] | solubility at 18 h [3] | solubility at 18 h [4] | solubility at 18 h [5] | EC50 [6] | solubility at 18 h [7] | EC50 [8] | EC50 [9] | solubility at 18 h [10] | solubility at 18 h [11] | EC50 [12] | solubility at 18 h [13]
CC(C)C[C@H](NC(=O)[C@H](CCC(=O)O)NC(=O)[C@H](Cc1cnc[nH]1)NC(=O)[C@H](CC(C)C)NC(=O)[C@H](CCC(=O)O)NC(=O)[C@H](C)NC(=O)[C@H](CO)NC(=O)[C@H](CC(C)C)NC(=O)[C@H](CCCNC(=N)N)NC(=O)CNC(=O)[C@H](CC(C)C)NC(=O)[C@@H](NC(=O)[C@H](C)NC(=O)[C@@H](NC(=O)[C@H](CO)NC(=O)[C@H](CC(C)C)NC(=O)[C@H](CCC(=O)O)NC(=O)[C@H](CO)NC(=O)[C@H](C)NC(=O)CC[C@H](NC(=O)CCCCCCCCCCCCCCCCC(=O)O)C(=O)O)[C@@H](C)O)C(C)C)C(=O)N[C@@H](C)C(=O)N[C@H](C(=O)N[C@@H](CC(C)C)C(=O)N1CCC[C@H]1C(=O)N[C@@H](CCCNC(=N)N)C(=O)N[C@H](C(=O)N[C@@H](CCC(=O)O)C(=O)N[C@H](C(=O)NCC(=O)N[C@@H](CO)C(=O)NCC(=O)N[C@@H](CO)C(=O)N1CCC[C@H]1C(N)=O)[C@@H](C)O)[C@@H](C)O)[C@@H](C)O ({C18 diacid-γGlu}-ASELSTAVLGRLSAELHELATLPRTETGSGSP-NH2) | ≥ 200 µM | 0.764 nM | ≥ 200 µM | ≥ 200 µM | ≥ 200 µM | 0.017 nM | ≥ 200 µM | 0.014 nM | 0.01 nM | ≥ 200 µM | ≥ 200 µM | 0.011 nM | ≥ 200 µM
CC(C)C[C@H](NC(=O)CNC(=O)[C@H](CO)NC(=O)[C@H](C)NC(=O)CC[C@H](NC(=O)CCCCCCCCCCCCCCCCCCC(=O)O)C(=O)O)C(=O)N[C@@H](CO)C(=O)N[C@H](C(=O)N[C@@H](C)C(=O)N[C@@H](C)C(=O)N[C@@H](CC(C)C)C(=O)NCC(=O)N[C@@H](CCCNC(=N)N)C(=O)N[C@@H](CC(C)C)C(=O)N[C@@H](CO)C(=O)N[C@@H](C)C(=O)N[C@@H](CCC(=O)O)C(=O)N[C@@H](CC(C)C)C(=O)N[C@@H](Cc1cnc[nH]1)C(=O)N[C@@H](CCC(=O)O)C(=O)N[C@@H](CC(C)C)C(=O)N[C@@H](C)C(=O)N[C@H](C(=O)N[C@@H](Cc1ccc(O)cc1)C(=O)N1CCC[C@H]1C(=O)N[C@@H](CCCNC(=N)N)C(=O)N[C@H](C(=O)N[C@@H](CCC(=O)O)C(=O)N[C@H](C(=O)NCC(=O)N[C@@H](CO)C(=O)NCC(=O)N[C@@H](CO)C(=O)N1CCC[C@H]1C(N)=O)[C@@H](C)O)[C@@H](C)O)[C@@H](C)O)[C@@H](C)O ({C20 diacid-γGlu}-ASGLSTAALGRLSAELHELATYPRTETGSGSP-NH2) | ≥ 200 µM | 0.111 nM | ≥ 200 µM | ≥ 200 µM | ≥ 200 µM | 0.071 nM | ≥ 200 µM | 0.042 nM | 0.038 nM | ≥ 200 µM | ≥ 200 µM | 0.045 nM | ≥ 200 µM
CC(C)C[C@H](NC(=O)CC[C@H](NC(=O)CCCCCCCCCCCCCCCCCCC(=O)O)C(=O)O)C(=O)N[C@@H](CO)C(=O)NCC(=O)N[C@@H](CC(C)C)C(=O)N[C@@H](CO)C(=O)N[C@H](C(=O)N[C@@H](C)C(=O)N[C@H](C(=O)N[C@@H](CC(C)C)C(=O)NCC(=O)N[C@@H](CCCNC(=N)N)C(=O)N[C@@H](CC(C)C)C(=O)N[C@@H](CO)C(=O)N[C@@H](C)C(=O)N[C@@H](CCC(=O)O)C(=O)N[C@@H](CC(C)C)C(=O)N[C@@H](Cc1cnc[nH]1)C(=O)N[C@@H](CCC(=O)O)C(=O)N[C@@H](CC(C)C)C(=O)N[C@@H](CO)C(=O)N[C@H](C(=O)N[C@@H](Cc1ccc(O)cc1)C(=O)N1CCC[C@H]1C(=O)N[C@@H](CCCNC(=N)N)C(=O)N[C@H](C(=O)N[C@@H](CCC(=O)O)C(=O)N[C@H](C(=O)NCC(=O)N[C@@H](CO)C(=O)NCC(=O)N[C@H](C(=O)N[C@@H](Cc1ccc(O)cc1)C(N)=O)[C@@H](C)O)[C@@H](C)O)[C@@H](C)O)[C@@H](C)O)C(C)C)[C@@H](C)O ({C20 diacid-γGlu}-LSGLSTAVLGRLSAELHELSTYPRTETGSGTY-NH2) | ≥ 200 µM | 11.8 nM | ≥ 200 µM | ≥ 200 µM | ≥ 200 µM | 0.064 nM | ≥ 200 µM | 0.028 nM | 0.024 nM | ≥ 200 µM | ≥ 200 µM | 0.034 nM | –

More lines, in order of falling IC50 [2], values ahead:

solubility at 18 h [1] | IC50 [2] | solubility at 18 h [3] | solubility at 18 h [4] | solubility at 18 h [5] | EC50 [6] | solubility at 18 h [7] | EC50 [8] | EC50 [9] | solubility at 18 h [10] | solubility at 18 h [11] | EC50 [12] | solubility at 18 h [13] | Compound
≥ 200 µM | 2.15 nM | ≥ 200 µM | ≥ 200 µM | ≥ 200 µM | 0.052 nM | ≥ 200 µM | 0.032 nM | 0.065 nM | ≥ 200 µM | ≥ 200 µM | 0.013 nM | ≥ 200 µM | CC(C)C[C@H](NC(=O)[C@H](CCC(=O)O)NC(=O)[C@H](Cc1cnc[nH]1)NC(=O)[C@H](CC(C)C)NC(=O)[C@H](CCC(=O)O)NC(=O)[C@H](C)NC(=O)[C@H](CO)NC(=O)[C@H](CC(C)C)NC(=O)[C@H](CCCNC(=N)N)NC(=O)CNC(=O)[C@H](CC(C)C)NC(=O)[C@@H](NC(=O)[C@H](C)NC(=O)[C@@H](NC(=O)[C@@H](NC(=O)[C@H](CC(C)C)NC(=O)[C@H](CCC(=O)O)NC(=O)[C@H](CO)NC(=O)[C@H](C)NC(=O)CC[C@H](NC(=O)CCCCCCCCCCCCCCCCC(=O)O)C(=O)O)[C@@H](C)O)[C@@H](C)O)C(C)C)C(=O)N[C@@H](C)C(=O)N[C@H](C(=O)N[C@@H](CC(C)C)C(=O)N1CCC[C@H]1C(=O)N[C@@H](CCCNC(=N)N)C(=O)N[C@H](C(=O)N[C@@H](CCC(=O)O)C(=O)N[C@H](C(=O)NCC(=O)N[C@H](C(=O)NCC(=O)N[C@H](C(=O)N1CCC[C@H]1C(N)=O)[C@@H](C)O)[C@@H](C)O)[C@@H](C)O)[C@@H](C)O)[C@@H](C)O ({C18 diacid-γGlu}-ASELTTAVLGRLSAELHELATLPRTETGTGTP-NH2)
≥ 200 µM | 1.59 nM | ≥ 200 µM | ≥ 200 µM | ≥ 200 µM | 0.143 nM | ≥ 200 µM | 0.014 nM | 0.012 nM | ≥ 200 µM | ≥ 200 µM | 0.074 nM | ≥ 200 µM | CC(C)C[C@H](NC(=O)[C@H](C)NC(=O)[C@H](C)NC(=O)[C@@H](NC(=O)[C@H](CO)NC(=O)[C@H](CC(C)C)NC(=O)[C@H](CCC(=O)O)NC(=O)[C@H](CO)NC(=O)[C@H](C)NC(=O)[C@H](CCC(=O)O)NC(=O)CC[C@H](NC(=O)CCCCCCCCCCCCCCCCCCC(=O)O)C(=O)O)[C@@H](C)O)C(=O)NCC(=O)N[C@@H](CCCNC(=N)N)C(=O)N[C@@H](CC(C)C)C(=O)N[C@@H](CO)C(=O)N[C@@H](C)C(=O)N[C@@H](CCC(=O)O)C(=O)N[C@@H](CC(C)C)C(=O)N[C@@H](Cc1cnc[nH]1)C(=O)N[C@@H](CCC(=O)O)C(=O)N[C@@H](CC(C)C)C(=O)N[C@@H](C)C(=O)N[C@H](C(=O)N[C@@H](Cc1ccc(O)cc1)C(=O)N1CCC[C@H]1C(=O)N[C@@H](CCCNC(=N)N)C(=O)N[C@H](C(=O)N[C@@H](CCC(=O)O)C(=O)N[C@H](C(=O)NCC(=O)N[C@@H](CO)C(=O)NCC(=O)N[C@@H](CO)C(=O)N1CCC[C@H]1C(N)=O)[C@@H](C)O)[C@@H](C)O)[C@@H](C)O ({C20 diacid-γGlu}-EASELSTAALGRLSAELHELATYPRTETGSGSP-NH2)
